Test results published in patent publication US20190231771A1, “METHODS FOR TREATMENT AND PREVENTION OF OPIOID INDUCED CONSTIPATION USING ORAL COMPOSITIONS OF METHYLNALTREXONE” (Salix Pharmaceuticals, Ltd., priority 2011, published 2019).
Read-outs that look alike come from different tables or passages of the source.

Assay: Study C: single and multiple dose pharmacokinetics of MNTX and metabolites, MNTX 450 mg PO x 7 days
Assay type: in vivo, human
Conditions: for bioavailability: oral, MNTX tablets 450 mg, cross-study AUCinf comparison; for bioavailability / half-life / AUC(0-inf) / AUC(0-t) / Cmax: 450 mg; for half-life / AUC(0-inf) / AUC(0-t) / Cmax: po; for AUC(0-t): read-out: AUC0-24; for Cmax: read-out: Cmax
Protocol: Presented herein is a clinical pharmacokinetics study, Study C, as well as Studies A and B. Study A investigated the single and multiple dose pharmacokinetics of methylnaltrexone (MNTX) and its metabolites (M2: methylnaltrexone sulfate; M4: 6α-methylnaltrexol; and M5: 6β-methylnaltrexol) following the subcutaneous administration of 12 mg methylnaltrexone. In Study B, the single and multiple dose pharmacokinetics of methylnaltrexone (MNTX) and its metabolites (M2, M4, and M5) were examined following a 20-minute short intravenous infusion of 24 mg of methylnaltrexone (MNTX).
In addition, the urinary elimination of MNTX was characterized.
Pharmacokinetic parameters included Cmax, AUCt, AUCinf, tmax, t1/2, % Re24, accumulation factor (R) as defined below and metabolite/parent drug ratio.
R=Accumulation Factor(based on AUC0-24(ng·h/mL):Day 7 AUC AUC0-24/Day 1 AUC0-24
Metabolite-Parent Drug ratio(based on ng·h/mL)(%)=100*(Metabolite AUC24/MNTX AUC24)
Note: AUCinf was used in place of AUC AUC0-24 for R and Metabolite-Parent Drug ratio computations following IV administration.

[1] = human, plasma, 450 mg Tablets oral, Day 1, mean
[2] = human, plasma, 450 mg Tablets oral, Day 7, mean

Question: For C[N@+]1(CC2CC2)CC[C@]23c4c5ccc(O)c4O[C@H]2C(=O)CC[C@@]3(O)[C@H]1C5.[Br-] [MNTX, (R)—N-(cyclopropylmethyl) noroxymorphone methobromide], which “R (PO), accumulation factor” value (450 mg Tablets oral, AUC0-24 on Day 7/AUC0-24 on Day 1) is on record?
Answer: 1.20

Question: And the bioavailability (human, plasma, multiple dose, read-out: bioavailability relative to IV multiple dose administration)?
Answer: 5.8%

Question: What about the bioavailability (human, plasma, multiple dose, read-out: bioavailability relative to SC multiple dose administration) of the same molecule?
Answer: 4.8%

Question: What about the bioavailability (human, plasma, single dose, read-out: absolute bioavailability (relative to IV infusion)) of the same molecule?
Answer: 4.24%

Question: And the bioavailability (human, plasma, single dose, read-out: bioavailability relative to SC injection)?
Answer: 3.7%

Question: What about the half-life (human, plasma, 450 mg Tablets oral, Day 1, harmonic mean) of the same molecule?
Answer: 8.8 h

Question: And the AUC(0-inf) [1]?
Answer: 0.315 µg·h/mL

Question: And the AUC(0-t) [1]?
Answer: 0.28 µg·h/mL

Question: And the Cmax [1]?
Answer: 0.0471 µg/mL

Question: What about the half-life (human, plasma, 450 mg Tablets oral, Day 7, harmonic mean) of the same molecule?
Answer: 19.2 h

Question: And the AUC(0-inf) [2]?
Answer: 0.404 µg·h/mL

Question: And the AUC(0-t) [2]?
Answer: 0.309 µg·h/mL

Question: And the Cmax [2]?
Answer: 0.0455 µg/mL

Question: What about the Tmax (human, plasma, 450 mg Tablets oral, Day 1, median, read-out: Tmax) of the same molecule?
Answer: 2 h
